These results are taken from US20240344241A1, “PROTEINACEOUS MOLECULES AND USES THEREFOR” (THE UNIVERSITY OF QUEENSLAND, priority 2021, published 2024).

The target of test [1] is T1, Human β-FXIIa (Homo sapiens, UniProt P00748).
T1 construct: Human β-FXIIa was obtained from Molecular Innovations, together with human FXa, human FXIa, human α-thrombin, and human plasma kallikrein; purchased Molecular Innovations; host or cells: purified from human plasma
Description: FXIIa competitive inhibition assay, fluorescent substrate Boc-QGR-MCA. Type of test: biochemical. The text has this:
Cyclic [I7F]MCoFx1 (also referred to as cyclic MCoFx6) was synthesized using solid phase peptide synthesis ([[…]] [SEQ ID NO: 97]). For this inhibitor, Tyr33 was mutated back to serine as per the original mRNA display screen (FIG. 1). Cyclic MCoFx6 was screened using a competitive inhibition assay, with the substrate being changed from a colorimetric substrate (Ac-QRFR-pNA in the data of Tables 7 and 10) to a fluorescent substrate (Boc-QGR-MCA) to allow the assay to be run with a lower concentration of enzyme. The assay was performed as described for Examples 2 and 3, except that the FXIIa concentration was 0.5 nM and the substrate concentration was 50 μM (KM=187 μM).
The new variants were screened using competitive inhibition assays, with the substrate being changed from a colorimetric substrate (Ac-QRFR-pNA in the data of Tables 7 and 10) to a fluorescent substrate (Boc-QGR-MCA) to allow the assay to be run with a lower concentration of enzyme. Assays were performed as described for Examples 2 and 3, except that the FXIIa concentration was 0.5 nM and the substrate concentration was 50 μM (KM=187 μM). […] The effect of amino acid substitutions within loop 2 (Arg12, Arg13), loop 5 (Ala25, Arg27) or loop 6 (Asp34) on the activity of cyclic MCoFx7 against FXIIa was determined (refer to Table 14). […] Additionally, mutating Arg to Glu (reversing the side chain charge) only led to two-fold weaker activity. The adjacent residue Arg13 could also be mutated to Lys with no change in activity. Within loop 5, mutating Ala25 to Lys produced a slight gain in activity, whereas the Ala to Pro mutation led to a slight decrease in activity. Both mutations at Arg27 led to losses in activity in the order of two-fold (His) or 3.2-fold (Gly).
(§1) The activity of acyclic and cyclic MCoFx1-5 and analogues thereof was assessed in competitive inhibition assays, as previously described in Swedberg et al. (2016) J Med Chem, 59: 7287-7292. Human β-FXIIa was obtained from Molecular Innovations, together with human FXa, human FXIa, human α-thrombin, and human plasma kallikrein. Human cationic trypsin and human plasmin were obtained from Sigma-Aldrich, and recombinant human matriptase was sourced from R&D Systems. Recombinant human urokinase (uPA) and recombinant human tissue plasminogen activator (tPA) were expressed in Expi293 cells, as previously described in Li et al. (2019) Chembiochem, 20: 46-50. FXIIa inhibition assays were performed in clear, low-binding 96-well plates using 250 μL (final volume) of assay buffer (0.1 M Tris-HCl pH 8.0, 0.1 M NaCl, 10 mM CaCl2 and 0.005% Triton X-100). Inhibitors were serially diluted and incubated with 10 nM FXIIa at room temperature to reach equilibrium. After adding 100 μM Ac-QRFR-pNA substrate (KM=162 μM), enzymatic activity was measured by monitoring release of the pNA moiety using a TECAN infinite M1000 Pro plate reader (A=405 nm, reading interval, 10 s; assay time course, 7 min). Assays were conducted in three times in duplicate. Substrate kinetic constants (Michaelis-Menten) and inhibition constants (Morrison K) were determined by non-linear regression using Prism 7 (GraphPad). Selectivity assays with off-target proteases were performed in a similar way, except that different concentrations of enzyme and substrate were used, as indicated in Table 16. For assays using a fluorescent substrate (peptide-4-methylcoumaryl-7-amide, MCA), black low-binding 96-well plates were used and activity was measured using a TECAN infinite M1000 pro plate reader (λex 360 nm, λem 460 nm, reading interval, 30 s; assay time course, 5-30 min).

The next test addresses T2, bovine trypsin (Bos taurus, UniProt P00760).
T2 sequence (P00760 24-246): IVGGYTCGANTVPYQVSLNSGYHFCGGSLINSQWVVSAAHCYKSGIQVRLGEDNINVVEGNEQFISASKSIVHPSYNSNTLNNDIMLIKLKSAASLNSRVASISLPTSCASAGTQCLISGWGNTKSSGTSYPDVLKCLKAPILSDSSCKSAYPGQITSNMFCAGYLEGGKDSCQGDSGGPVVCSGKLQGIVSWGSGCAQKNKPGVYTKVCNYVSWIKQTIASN
Description: Surface plasmon resonance binding to trypsin. To be noted: for affinity for trypsin (in words): SPR. On the technique in general: In SPR one partner is held on a chip, and binding of the other changes the refractive index at the surface.

The target of test [2] is T1, Human β-FXIIa. Description: FXIIa competitive inhibition assay, colorimetric substrate Ac-QRFR-pNA. Type of test: biochemical. The method, then: as §1

Bridge positions count the residues as written; N and C are the ends. Peptide text beside a SMILES is read from it.

T1 sequence (P00748 373-615 limits assumed, other chains not shown): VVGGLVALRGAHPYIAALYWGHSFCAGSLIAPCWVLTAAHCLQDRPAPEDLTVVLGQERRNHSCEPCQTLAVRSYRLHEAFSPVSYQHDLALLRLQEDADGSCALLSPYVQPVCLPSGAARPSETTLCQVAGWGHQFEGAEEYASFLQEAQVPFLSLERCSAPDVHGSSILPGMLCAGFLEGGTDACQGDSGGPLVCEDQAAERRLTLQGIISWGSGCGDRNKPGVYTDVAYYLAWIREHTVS

As usually defined, the Ki is the dissociation constant of the complex between target and ligand, obtained from inhibition or displacement. Lower therefore signals tighter binding. On to `CC[C@H](C)[C@@H]1NC(=O)CNC(=O)CNC(=O)[C@H](CC(=O)O)NC(=O)[C@H](CO)NC(=O)CNC(=O)[C@H](CO)NC(=O)CNC(=O)[C@@H]2CSSC[C@@H]3NC(=O)[C@H](CC(=O)O)NC(=O)[C@H](CO)NC(=O)[C@H](CC(=O)O)NC(=O)[C@H](CCCNC(=N)N)NC(=O)[C@H](CCCNC(=N)N)NC(=O)[C@@H]4CSSC[C@H](NC(=O)[C@H]([C@@H](C)CC)NC(=O)[C@H](CSSC[C@H](NC1=O)C(=O)N1CCC[C@H]1C(=O)N[C@@H](CCCNC(=N)N)C(=O)N[C@@H]([C@@H](C)CC)C(=O)NCC(=O)N[C@@H](CCCNC(=N)N)C(=O)N[C@@H](CC(C)C)C(=O)N4)NC(=O)[C@H](C)NC(=O)CNC(=O)[C@@H]1CCCN1C3=O)C(=O)N[C@@H](CCCNC(=N)N)C(=O)N[C@@H](CCCCN)C(=O)N[C@@H]([C@@H](C)O)C(=O)N[C@@H](CCCNC(=N)N)C(=O)N[C@@H](Cc1ccccc1)C(=O)N2` [Cyclic [A25K]MCoFx7] (cyclo(ACICRKTRFCGSGSDGGICPRIGRLCRRDSDCPG); disulfide 2-19, 4-26, 10-32), for which the affinity at Human β-FXIIa [1], expressed as Ki, was 0.046 ± 0.005 nM.
The same measure, in the same setting: the value for `CC[C@H](C)[C@@H]1NC(=O)CNC(=O)CNC(=O)[C@@H]2CCCN2C(=O)[C@H](CO)NC(=O)CNC(=O)[C@H](CO)NC(=O)CNC(=O)[C@@H]2CSSC[C@@H]3NC(=O)[C@H](CC(=O)O)NC(=O)[C@H](CO)NC(=O)[C@H](CC(=O)O)NC(=O)[C@H](CCCNC(=N)N)NC(=O)[C@H](CCCNC(=N)N)NC(=O)[C@@H]4CSSC[C@H](NC(=O)[C@H]([C@@H](C)CC)NC(=O)[C@H](CSSC[C@H](NC1=O)C(=O)N1CCC[C@H]1C(=O)N[C@@H](CCCNC(=N)N)C(=O)N[C@@H]([C@@H](C)CC)C(=O)NCC(=O)N[C@@H](CCCNC(=N)N)C(=O)N[C@@H](CC(C)C)C(=O)N4)NC(=O)[C@H](C)NC(=O)CNC(=O)[C@@H]1CCCN1C3=O)C(=O)N[C@@H](CCCNC(=N)N)C(=O)N[C@@H](C)C(=O)N[C@@H]([C@@H](C)O)C(=O)N[C@@H](CCCNC(=N)N)C(=O)N[C@@H](Cc1ccccc1)C(=O)N2` [Cyclic [D34P]MCoFx7] (cyclo(ACICRATRFCGSGSPGGICPRIGRLCRRDSDCPG); disulfide 2-19, 4-26, 10-32) was 0.091 nM.
For `CC[C@H](C)[C@@H]1NC(=O)CNC(=O)CNC(=O)[C@H](CC(=O)O)NC(=O)[C@H](CO)NC(=O)CNC(=O)[C@H](CO)NC(=O)CNC(=O)[C@@H]2CSSC[C@@H]3NC(=O)[C@H](CC(=O)O)NC(=O)[C@H](CO)NC(=O)[C@H](CC(=O)O)NC(=O)[C@H](CCCNC(=N)N)NC(=O)[C@H](CCC(=O)O)NC(=O)[C@@H]4CSSC[C@H](NC(=O)[C@H]([C@@H](C)CC)NC(=O)[C@H](CSSC[C@H](NC1=O)C(=O)N1CCC[C@H]1C(=O)N[C@@H](CCCNC(=N)N)C(=O)N[C@@H]([C@@H](C)CC)C(=O)NCC(=O)N[C@@H](CCCNC(=N)N)C(=O)N[C@@H](CC(C)C)C(=O)N4)NC(=O)[C@H](C)NC(=O)CNC(=O)[C@@H]1CCCN1C3=O)C(=O)N[C@@H](CCCNC(=N)N)C(=O)N[C@@H](C)C(=O)N[C@@H]([C@@H](C)O)C(=O)N[C@@H](CCCNC(=N)N)C(=O)N[C@@H](Cc1ccccc1)C(=O)N2` [Cyclic [R12E]MCoFx7] (cyclo(ACICRATRFCGSGSDGGICPRIGRLCERDSDCPG); disulfide 2-19, 4-26, 10-32), at Human β-FXIIa [1], the inhibition constant Ki was 0.13 ± 0.007 nM.
Consider `CC[C@H](C)[C@@H]1NC(=O)[C@@H]2CSSC[C@H](NC(=O)[C@H](CCCNC(=N)N)NC(=O)CNC(=O)CNC(=O)[C@@H](N)CC(=O)O)C(=O)N[C@@H](CS)C(=O)NCC(=O)NCC(=O)N[C@@H](Cc3ccc(O)cc3)C(=O)N[C@@H](CC(C)C)C(=O)N[C@@H](C(C)C)C(=O)N[C@H]3CSSC[C@H](NC1=O)C(=O)N[C@@H](C(C)C)C(=O)N[C@@H](Cc1ccccc1)C(=O)N[C@@H](CCCCN)C(=O)N[C@@H](CCCCN)C(=O)N[C@@H](Cc1c[nH]cn1)C(=O)N[C@H](C(=O)NCC(=O)N[C@@H](CO)C(=O)NCC(=O)N[C@@H](CO)C(=O)O)CSSC[C@H](NC(=O)[C@H](CC(=O)O)NC(=O)[C@H](CO)NC(=O)[C@H](CC(=O)O)NC(=O)[C@H](CCCNC(=N)N)NC(=O)[C@H](CCCNC(=N)N)NC3=O)C(=O)N1CCC[C@H]1C(=O)NCC(=O)N[C@@H](C)C(=O)N2` [MCoFx5 acyclic] (H-DGGRCCGGYLVCRRDSDCPGACICVFKKHCGSGS-OH; disulfide 5-22, 12-24, 18-30), for which the “affinity for trypsin (in words)” value at bovine trypsin was “Neither aMCoFx5 nor cMCoFx5 showed detectable affinity for trypsin”. Further, the “KD (nM) Trypsin Acyclic” value on bovine trypsin (Table 8, acyclic form) is given as “No binding”.
Turning to `CC[C@H](C)[C@@H]1NC(=O)[C@@H]2CSSC[C@@H]3NC(=O)[C@H](CCCNC(=N)N)NC(=O)CNC(=O)CNC(=O)[C@H](CC(=O)O)NC(=O)[C@H](CO)NC(=O)CNC(=O)[C@H](CO)NC(=O)CNC(=O)[C@@H]4CSSC[C@H](NC(=O)[C@H](CC(=O)O)NC(=O)[C@H](CO)NC(=O)[C@H](CC(=O)O)NC(=O)[C@H](CCCNC(=N)N)NC(=O)[C@H](CCCNC(=N)N)NC(=O)[C@H](CSSC[C@H](NC1=O)C(=O)N[C@@H](C(C)C)C(=O)N[C@@H](Cc1ccccc1)C(=O)N[C@@H](CCCCN)C(=O)N[C@@H](CCCCN)C(=O)N[C@@H](Cc1c[nH]cn1)C(=O)N4)NC(=O)[C@H](C(C)C)NC(=O)[C@H](CC(C)C)NC(=O)[C@H](Cc1ccc(O)cc1)NC(=O)CNC(=O)CNC(=O)[C@H](CS)NC3=O)C(=O)N1CCC[C@H]1C(=O)NCC(=O)N[C@@H](C)C(=O)N2` [MCoFx5 cyclic] (cyclo(DGGRCCGGYLVCRRDSDCPGACICVFKKHCGSGS); disulfide 5-22, 12-24, 18-30), at bovine trypsin, the “affinity for trypsin (in words)” value was “Neither aMCoFx5 nor cMCoFx5 showed detectable affinity for trypsin”. In addition, the “KD (nM) Trypsin Cyclic” value on bovine trypsin (Table 8, cyclic form) is on record as “No binding”.
With `CC[C@H](C)[C@@H]1NC(=O)[C@H](CCCNC(=N)N)NC(=O)[C@@H]2CCCN2C(=O)[C@@H](NC(=O)[C@@H](NC(=O)[C@@H](N)CCCNC(=N)N)[C@@H](C)CC)CSSC[C@@H]2NC(=O)[C@H](C)NC(=O)CNC(=O)[C@@H]3CCCN3C(=O)[C@@H]3CSSC[C@@H](C(=O)NCC(=O)O)NC(=O)[C@H](Cc4ccccc4)NC(=O)[C@H](CCCNC(=N)N)NC(=O)[C@H]([C@@H](C)O)NC(=O)[C@H](C)NC(=O)[C@H](CCCNC(=N)N)NC(=O)[C@H](CSSC[C@H](NC(=O)[C@H](CC(C)C)NC(=O)[C@H](CCCNC(=N)N)NC(=O)CNC1=O)C(=O)N[C@@H](CCCNC(=N)N)C(=O)N[C@@H](CCCNC(=N)N)C(=O)N[C@@H](CC(=O)O)C(=O)N[C@@H](CO)C(=O)N[C@@H](CC(=O)O)C(=O)N3)NC(=O)[C@H]([C@@H](C)CC)NC2=O` [SEQ ID NO: 84] (H-RICPRIGRLCRRDSDCPGACICRATRFCG-OH; disulfide 3-20, 10-22, 16-28), the affinity at Human β-FXIIa [2], expressed as Ki, was 1.4 nM.
